Like-named read-outs stand apart in the source and are kept apart here.
Test system: HUVEC cells
Experiment: CCK-8 cell viability: alleviation of proliferative toxicity of anti-tumor agents on HUVEC cells (Tables 7-1, 7-2)
Type: cell-based
Settings: for activation at 100 µM: Homo sapiens, 24 h, percentage increase in viable cells vs anti-tumor agent alone, read-out: Response rate % (average)
Protocol: The cultured HUVEC cells were digested the suspended, counted, and seed into a 96-well plate with 5,000-10,000 cells per well. The wells are divided into the following groups: blank control group, anti-tumor agent group, anti-tumor agent+NO-NSAID group, anti-tumor agent solvent group, NO-NSAID control group. Wherein each well of each group contained a basic medium, and the final liquid volume contained in each well was about 100 μL. The grouping situation was as follows: • 1) Blank control group: no solution was added except normally replacing the medium; • 2) Anti-tumor agent group: added the anti-tumor agent solution (the final concentration was shown in Table 7-1 and Table 7-2, the solvent of the anti-tumor agent solution was DMSO); • 3) Anti-tumor agent+NO-NSAID group: added the anti-tumor agent solution and the NO-NSAID solution (the final concentrations of anti-tumor agent and NO-NSAID were shown in Table 7-1 and Table 7-2, and according to the solubility of NO-NSAID, the solvent of NO-NSAID solution was selected as ethanol or sterile water, and minor volume differences in each group were adjusted by added the corresponding solvent); • 4) Anti-tumor agent solvent group: an equal volume of DMSO as contained in the corresponding anti-tumor agent solution in Group 2) was added; • 5) NO-NSAID control group: the same volume and type of solvent (for example, ethanol or sterile water) corresponding to the NO-NSAID contained in group 3) was added.
The anti-tumor agent solvent group was not involved in data processing and was only used as a reference for evaluating experimental system error. The NO-NSAID solvent control group was used for data correction to eliminate the influence of the solvent on the results.
After culturing for 24-48 hours, the Cell Counting Kit-8 (CCK-8) detection kit (C0037, Shanghai Beyotime Biotechnology Co., Ltd., Beyotime Biotechnology) was used to determine the cell viability. This allows for the calculation of the proliferative toxicity of anti-tumor agent on cell and the mitigating effect of NO-NSAID on proliferative toxicity. The results were statistically analyzed and plotted using GraphPad Prism 6.0 software and t test.

[1] = Afatinib (10 μM), NO-NSAID 100 μM
[2] = Cabozantinib (5 μM), NO-NSAID 100 μM
[3] = Dabrafenib (10 μM), NO-NSAID 100 μM
[4] = Everolimus (5 μM), NO-NSAID 100 μM
[5] = Infigratinib (15 μM), NO-NSAID 100 μM
[6] = Lapatinib (5 μM), NO-NSAID 100 μM

CC(C(=O)OCCCO[N+](=O)[O-])c1ccc(-c2ccccc2)c(F)c1 (centres unmarked) [Compound A1]
NO-NSAID response rate % (average) (Afatinib (10 μM), NO-NSAID 0.1 μM): 13%
NO-NSAID response rate % (average) (Afatinib (10 μM), NO-NSAID 1 μM): 20%
NO-NSAID response rate % (average) [1]: 50%
NO-NSAID response rate % (average) (Afatinib (10 μM), NO-NSAID 500 μM): 25%
NO-NSAID response rate % (average) (Cabozantinib (5 μM), NO-NSAID 0.1 μM): 10%
NO-NSAID response rate % (average) (Cabozantinib (5 μM), NO-NSAID 1 μM): 10%
NO-NSAID response rate % (average) [2]: 4%
NO-NSAID response rate % (average) (Cabozantinib (5 μM), NO-NSAID 500 μM): 15%
NO-NSAID response rate % (average) (Dabrafenib (10 μM), NO-NSAID 0.1 μM): 22%
NO-NSAID response rate % (average) (Dabrafenib (10 μM), NO-NSAID 1 μM): 48%
NO-NSAID response rate % (average) [3]: 53%
NO-NSAID response rate % (average) (Dabrafenib (10 μM), NO-NSAID 500 μM): 37%
NO-NSAID response rate % (average) (Everolimus (5 μM), NO-NSAID 0.1 μM): 4%
NO-NSAID response rate % (average) (Everolimus (5 μM), NO-NSAID 1 μM): −2%
NO-NSAID response rate % (average) [4]: 62%
NO-NSAID response rate % (average) (Everolimus (5 μM), NO-NSAID 500 μM): 20%
activation at 100 µM [1]: 50%
activation at 100 µM (Anlotinib (5 μM), NO-NSAID 100 μM): 16%
activation at 100 µM (Apatinib (10 μM), NO-NSAID 100 μM): 43%
activation at 100 µM (Axitinib (10 μM), NO-NSAID 100 μM): 65%
activation at 100 µM [2]: 4%
activation at 100 µM [3]: 53%
activation at 100 µM (Dacomitinib (5 μM), NO-NSAID 100 μM): 59%
activation at 100 µM (Encorafenib (5 μM), NO-NSAID 100 μM): 65%
activation at 100 µM (Erdafitinib (10 μM), NO-NSAID 100 μM): 51%
activation at 100 µM [4]: 62%
activation at 100 µM (Famitinib (5 μM), NO-NSAID 100 μM): 70%
activation at 100 µM (Fruquintinib (10 μM), NO-NSAID 100 μM): 23%
activation at 100 µM (Gefitinib (10 μM), NO-NSAID 100 μM): 30%
activation at 100 µM [5]: 80%
activation at 100 µM [6]: 27%
activation at 100 µM (Lenvatinib (10 μM), NO-NSAID 100 μM): 28%
activation at 100 µM (Olmutinib (10 μM), NO-NSAID 100 μM): 37%
activation at 100 µM (Regorafenib (5 μM), NO-NSAID 100 μM): 64%
activation at 100 µM (Selumetinib (5 μM), NO-NSAID 100 μM): 51%
activation at 100 µM (Sorafenib (5 μM), NO-NSAID 100 μM): 51%
activation at 100 µM (Sunitinib (5 μM), NO-NSAID 100 μM): 11%
activation at 100 µM (Vemurafenib (5 μM), NO-NSAID 100 μM): 45%
NO-NSAID response rate % (average) (Infigratinib (15 μM), NO-NSAID 0.1 μM): 23%
NO-NSAID response rate % (average) (Infigratinib (15 μM), NO-NSAID 1 μM): 14%
NO-NSAID response rate % (average) [5]: 80%
NO-NSAID response rate % (average) (Infigratinib (15 μM), NO-NSAID 500 μM): 25%
NO-NSAID response rate % (average) (Lapatinib (5 μM), NO-NSAID 0.1 μM): 27%
NO-NSAID response rate % (average) (Lapatinib (5 μM), NO-NSAID 1 μM): 23%
NO-NSAID response rate % (average) [6]: 27%
NO-NSAID response rate % (average) (Lapatinib (5 μM), NO-NSAID 500 μM): 24%
NO-NSAID response rate % (average) (Lenvatinib (10 μM), NO-NSAID 0.1 μM): 21%
